We go through 3 molecules from patent publication US8820316B2, “Drug delivery apparatus” (Respironics Respiratory Drug Delivery (UK) Ltd, priority 2000, dated 2014).

A short description of series [1]: Sputum tobramycin concentration, conventional nebulizer versus high compliance system. Conditions: human, inhaled. It counts as in vivo, patients. The method, then: To compare the performance of a conventional nebulizer and a high compliance system according to this invention using Tobramycin 8 patients received either 300 mg/5 ml via conventional nebulizer or 30 mg delivered dose via the high compliance system. The mean sputum tobramycin concentrations at 2 hours were 128 μg/g for the conventional nebulizer and 98 μg/g for the high compliance system. This study may indicate that an even lower dose may be acceptable to achieve the MIC level when delivered with a high compliance system such as disclosed in this invention, in the range 5-30 mg Tobramycin.

The test system of series [2] is Pseudomonas aeriginosa. Particulars: typically required, for 90% of organisms; to be maintained for 120 minutes; cited from earlier work.
For series [3], the system named is susceptible bacteria in the endobronchial space. Particulars: 200-400 mg aminoglycoside in about 5 ml, 0.225% NaCl, pH 5.5-6.5, aerosolised (WO 96/12471); cited from earlier work.
Series [4] can be described thus: Budesonide study in 125 children with asthma using the system of the invention, asthma symptom score. It counts as in vivo. Particulars: Improved Invention System, 200/50 μg; for daytime asthma symptom score, Baseline at entry / daytime asthma symptom score, End of Study: visual analogue range 0-3. As for the experimental part: A study in 125 children with asthma using the system disclosed in this patent delivered three different regimes of a short duration (2-12 weeks) high delivered daily dose 200 μg followed by a long duration (12-22 weeks) low daily dose delivered dose 50 μg. Their treatment compliance was monitored electronically and their asthma symptoms by the parents using a visual analogue score. The treatment compliance over the study was 80/90% and the asthma scores reduced from a baseline of 1.23/1.27 to 0.23/0.43.

The nature of series [5]: Budesonide study in 481 children with asthma using conventional nebulizers, asthma symptom score. It counts as in vivo. Conditions: Conventional Nebuliser; for daytime asthma symptom score, End of Study: 12 weeks; for daytime asthma symptom score, End of Study / daytime asthma symptom score, Baseline at entry: visual analogue range 0-3. The method, then:
The study in 481 children with asthma using conventional nebulizers delivered five different regimes. Nominal nebulizer doses were in the range 250/1000 μg daily and placebo over a 12 week period. Their asthma symptoms by the parents using a visual analogue scores, the asthma scores reduced from 1.21/1.33 to 0.87/0.93.

Series [6] is described as follows: rhDNase response (FEV1) in adult CF patients who previously failed to respond. It is filed as in vivo. From the text: Mean change in FEV1 was 11.51%.
For series [7] the following is noted: when starting rhDNase therapy; cited from earlier work.

`NC[C@H]1O[C@H](O[C@H]2[C@H](O)[C@@H](O[C@H]3O[C@H](CO)[C@@H](O)[C@H](N)[C@H]3O)[C@H](N)C[C@@H]2N)[C@H](N)C[C@@H]1O` [Tobramycin]: the concentration at 2 h in series [1] (30 mg delivered dose via the high compliance system) came to 98000 ng/g; in series [1] (300 mg/5 ml via conventional nebulizer), 128000 ng/g. For the same molecule, the MIC level in series [2] was over 16 µg/mL. Moreover, in series [3], the “suppresses and inhibits susceptible bacteria” value is “at least 95%”.
Consider `CCCC1O[C@@H]2C[C@H]3[C@@H]4CCC5=CC(=O)C=C[C@]5(C)[C@H]4[C@@H](O)C[C@]3(C)[C@]2(C(=O)CO)O1` (stereo partly shown) [Budesonide], for which the “daytime asthma symptom score, Change” value is recorded as −1 in series [4] (2/22 weeks); −0.83 in series [4] (6/18 weeks); −0.91 in series [4] (12/12 weeks); −0.28 in series [5] (250 μg once daily); −0.4 in series [5] (250 μg twice daily); −0.46 in series [5] (500 μg twice daily). Also, in series [5] (1000 μg once daily), the “daytime asthma symptom score, Change” value is −0.37. The “daytime asthma symptom score, Baseline at entry” value in series [4] (2/22 weeks) was determined as 1.23; in series [4] (6/18 weeks), 1.26; in series [4] (12/12 weeks) it was 1.27; in series [5] (250 μg once daily) it was 1.21; in series [5] (250 μg twice daily), 1.31; in series [5] (500 μg twice daily), 1.33. Besides, the “daytime asthma symptom score, Baseline at entry” value in series [5] (1000 μg once daily) is recorded as 1.28. Further, the “daytime asthma symptom score, End of Study” value stood at 0.23 in series [4] (2/22 weeks); 0.43 in series [4] (6/18 weeks); 0.36 in series [4] (12/12 weeks); 0.93 in series [5] (250 μg once daily); 0.91 in series [5] (250 μg twice daily); 0.87 in series [5] (500 μg twice daily). For the same molecule, in series [5] (1000 μg once daily), the “daytime asthma symptom score, End of Study” value was 0.91.

B1: rhDNase: Pulmozyme (recombinant, human DNase), mucoactive drug for cystic fibrosis lung disease (protein, UniProt P24855 23-282, looked up)
Deoxyribonuclease-1: LKIAAFNIQTFGETKMSNATLVSYIVQILSRYDIALVQEVRDSHLTAVGKLLDNLNQDAPDTYHYVVSEPLGRNSYKERYLFVYRPDQVSAVDSYYYDDGCEPCGNDTFNREPAIVRFFSRFTEVREFAIVPLHAAPGDAVAEIDALYDVYLDVQEKWGLEDVMLMGDFNAGCSYVRPSQWSSIRLWTSPTFQWLIPDSADTTATPTHCAYDRIVVAGMLLRGAVVPDSALPFNFQAAYGLSDQLAQAISDHYPVEVMLK
modifications: dornase alfa
On to B1, for which the “Mean change in FEV1” value in series [6] (10 days, 0.25 ml/0.25 mg of the formulation, high compliance delivery system) is 11.51%. The “mean response to therapy, change in FEV1” value in series [6] (previous rhDNase therapy with conventional nebulizer devices) amounted to 4.17%. Also, the “patients showing a greater than 10% change in FEV1 over baseline” value in series [7] is given as “Approximately 38%”.
